Reference: the NIST ThermoML archive (doi:10.1016/j.fluid.2015.10.026)
± gives the expanded uncertainty stated by the source.

Conditions: Brillouin light scattering

CCC(C)(C)OC [2-methoxy-2-methylbutane]
Conditions | speed of sound [m/s]
443.15 K, 2500 kPa, Liquid | 537.57 ± 2.9
443.15 K, 4000 kPa, Liquid | 561.49 ± 3
443.15 K, 5500 kPa, Liquid | 584.45 ± 3.1
443.15 K, 7000 kPa, Liquid | 606.46 ± 3.3
443.15 K, 8500 kPa, Liquid | 627.51 ± 3.4
443.15 K, 10000 kPa, Liquid | 647.61 ± 3.5
453.15 K, 660 kPa, Liquid | 468.81 ± 2.6
453.15 K, 2500 kPa, Liquid | 495.6 ± 2.7
453.15 K, 4000 kPa, Liquid | 520.74 ± 2.8
453.15 K, 5500 kPa, Liquid | 544.94 ± 3
453.15 K, 7000 kPa, Liquid | 568.2 ± 3.1
453.15 K, 8500 kPa, Liquid | 590.53 ± 3.2
453.15 K, 10000 kPa, Liquid | 611.92 ± 3.3
463.15 K, 820 kPa, Gas | 194.03 ± 1.8
463.15 K, 820 kPa, Liquid | 424.99 ± 2.5
463.15 K, 2500 kPa, Liquid | 453.48 ± 2.5
463.15 K, 4000 kPa, Liquid | 479.86 ± 2.7
463.15 K, 5500 kPa, Liquid | 505.34 ± 2.8
463.15 K, 7000 kPa, Liquid | 529.91 ± 3
463.15 K, 8500 kPa, Liquid | 553.58 ± 3.1
463.15 K, 10000 kPa, Liquid | 576.34 ± 3.2
473.15 K, 1010 kPa, Gas | 187.27 ± 1.4
473.15 K, 1010 kPa, Liquid | 380.39 ± 2.3
473.15 K, 4000 kPa, Liquid | 438.87 ± 2.5
473.15 K, 5500 kPa, Liquid | 465.66 ± 2.6
473.15 K, 7000 kPa, Liquid | 491.59 ± 2.9
473.15 K, 8500 kPa, Liquid | 516.66 ± 2.9
473.15 K, 10000 kPa, Liquid | 540.87 ± 3
483.15 K, 1240 kPa, Gas | 179.96 ± 1.7
483.15 K, 1240 kPa, Liquid | 334.95 ± 2.1
483.15 K, 4000 kPa, Liquid | 397.75 ± 2.3
483.15 K, 5500 kPa, Liquid | 425.9 ± 2.4
488.15 K, 1370 kPa, Gas | 175.42 ± 2
488.15 K, 1370 kPa, Liquid | 311.9 ± 2
493.15 K, 1520 kPa, Gas | 169.9 ± 4
493.15 K, 1520 kPa, Liquid | 288.63 ± 1.9
493.15 K, 4000 kPa, Liquid | 356.51 ± 2.1
493.15 K, 5500 kPa, Liquid | 386.06 ± 2.3
498.15 K, 1680 kPa, Gas | 163.13 ± 2.7
498.15 K, 1680 kPa, Liquid | 265.12 ± 1.8
498.15 K, 4000 kPa, Liquid | 335.85 ± 2
498.15 K, 5500 kPa, Liquid | 366.12 ± 2.2
503.15 K, 1860 kPa, Gas | 154.8 ± 3
503.15 K, 1860 kPa, Liquid | 241.38 ± 1.7
503.15 K, 4000 kPa, Liquid | 315.16 ± 2
503.15 K, 5500 kPa, Liquid | 346.15 ± 2.1
508.15 K, 2060 kPa, Gas | 144.62 ± 6.6
508.15 K, 2060 kPa, Liquid | 217.4 ± 1.6
508.15 K, 4000 kPa, Liquid | 294.43 ± 1.9
508.15 K, 5500 kPa, Liquid | 326.16 ± 2
513.15 K, 2270 kPa, Gas | 132.28 ± 3.9
513.15 K, 2270 kPa, Liquid | 193.18 ± 1.5
513.15 K, 4000 kPa, Liquid | 273.68 ± 1.8
513.15 K, 5500 kPa, Liquid | 306.15 ± 1.9
518.15 K, 2500 kPa, Gas | 117.47 ± 3
518.15 K, 2500 kPa, Liquid | 168.7 ± 1.4
518.15 K, 4000 kPa, Liquid | 252.89 ± 1.8
518.15 K, 5500 kPa, Liquid | 286.12 ± 1.9
523.15 K, 2760 kPa, Gas | 99.85 ± 3
523.15 K, 2760 kPa, Liquid | 143.98 ± 1.3
523.15 K, 4000 kPa, Liquid | 232.08 ± 1.7
523.15 K, 5500 kPa, Liquid | 266.07 ± 1.8
537.15 K, 5000 kPa, Fluid (supercritical or subcritical phases) | 228.75 ± 2.2
537.15 K, 6000 kPa, Fluid (supercritical or subcritical phases) | 279.45 ± 3.3
538.63 K, 4000 kPa, Fluid (supercritical or subcritical phases) | 166.74 ± 2
540.07 K, 7000 kPa, Fluid (supercritical or subcritical phases) | 308.01 ± 3.1
547.15 K, 5000 kPa, Fluid (supercritical or subcritical phases) | 173.14 ± 2.4
547.15 K, 6000 kPa, Fluid (supercritical or subcritical phases) | 231.15 ± 3.5
548.05 K, 7000 kPa, Fluid (supercritical or subcritical phases) | 273.71 ± 3.4
548.23 K, 4000 kPa, Fluid (supercritical or subcritical phases) | 93.78 ± 1.8
557.15 K, 5000 kPa, Fluid (supercritical or subcritical phases) | 137.45 ± 1.6
557.15 K, 6000 kPa, Fluid (supercritical or subcritical phases) | 185.53 ± 3.4
557.95 K, 4000 kPa, Fluid (supercritical or subcritical phases) | 114.59 ± 1.4
558.89 K, 7000 kPa, Fluid (supercritical or subcritical phases) | 235.39 ± 3.7
567.15 K, 5000 kPa, Fluid (supercritical or subcritical phases) | 122.01 ± 1.2
567.15 K, 6000 kPa, Fluid (supercritical or subcritical phases) | 152.32 ± 2.7
567.35 K, 4000 kPa, Fluid (supercritical or subcritical phases) | 139.87 ± 1.3
568.4 K, 7000 kPa, Fluid (supercritical or subcritical phases) | 200.04 ± 3.6
577 K, 5000 kPa, Fluid (supercritical or subcritical phases) | 139.01 ± 1.2
577 K, 6000 kPa, Fluid (supercritical or subcritical phases) | 140.84 ± 1.7
577.42 K, 7000 kPa, Fluid (supercritical or subcritical phases) | 176.29 ± 2.6
577.5 K, 4000 kPa, Fluid (supercritical or subcritical phases) | 156.64 ± 1.4
586.07 K, 7000 kPa, Fluid (supercritical or subcritical phases) | 158.23 ± 1.7
586.09 K, 6000 kPa, Fluid (supercritical or subcritical phases) | 146.23 ± 1.2
586.58 K, 4000 kPa, Fluid (supercritical or subcritical phases) | 172.49 ± 1.4
586.8 K, 5000 kPa, Fluid (supercritical or subcritical phases) | 155.55 ± 1.3
597.62 K, 7000 kPa, Fluid (supercritical or subcritical phases) | 156.64 ± 1.3
598.22 K, 6000 kPa, Fluid (supercritical or subcritical phases) | 159.43 ± 1.3
599.01 K, 5000 kPa, Fluid (supercritical or subcritical phases) | 172.16 ± 1.4
599.67 K, 4000 kPa, Fluid (supercritical or subcritical phases) | 188.97 ± 1.5
607.67 K, 7000 kPa, Fluid (supercritical or subcritical phases) | 165.36 ± 1.4
608.42 K, 6000 kPa, Fluid (supercritical or subcritical phases) | 174.49 ± 1.5
609.14 K, 5000 kPa, Fluid (supercritical or subcritical phases) | 187.44 ± 1.4
610.53 K, 4000 kPa, Fluid (supercritical or subcritical phases) | 204.31 ± 1.5
616.46 K, 7000 kPa, Fluid (supercritical or subcritical phases) | 175.98 ± 1.5
617.13 K, 6000 kPa, Fluid (supercritical or subcritical phases) | 187.48 ± 1.5
618.08 K, 5000 kPa, Fluid (supercritical or subcritical phases) | 199.99 ± 1.5
618.29 K, 4000 kPa, Fluid (supercritical or subcritical phases) | 213.66 ± 1.5
626.75 K, 7000 kPa, Fluid (supercritical or subcritical phases) | 188.95 ± 1.5
627.35 K, 6000 kPa, Fluid (supercritical or subcritical phases) | 199.55 ± 1.5
628.15 K, 5000 kPa, Fluid (supercritical or subcritical phases) | 210.83 ± 1.5
629.14 K, 4000 kPa, Fluid (supercritical or subcritical phases) | 222.93 ± 1.5
636.88 K, 6000 kPa, Fluid (supercritical or subcritical phases) | 207.42 ± 1.5
636.88 K, 7000 kPa, Fluid (supercritical or subcritical phases) | 199.92 ± 1.5
638.41 K, 5000 kPa, Fluid (supercritical or subcritical phases) | 218.7 ± 1.5
639.77 K, 4000 kPa, Fluid (supercritical or subcritical phases) | 229.85 ± 1.6
645.57 K, 5000 kPa, Fluid (supercritical or subcritical phases) | 222.56 ± 1.5
645.57 K, 6000 kPa, Fluid (supercritical or subcritical phases) | 213.28 ± 1.6
645.57 K, 7000 kPa, Fluid (supercritical or subcritical phases) | 204.49 ± 1.5
646.51 K, 4000 kPa, Fluid (supercritical or subcritical phases) | 233.5 ± 1.6
656.29 K, 5000 kPa, Fluid (supercritical or subcritical phases) | 226.62 ± 1.5
656.29 K, 7000 kPa, Fluid (supercritical or subcritical phases) | 208.95 ± 1.6
656.31 K, 6000 kPa, Fluid (supercritical or subcritical phases) | 217.14 ± 1.6
657.59 K, 4000 kPa, Fluid (supercritical or subcritical phases) | 237.14 ± 1.6
669.94 K, 5000 kPa, Fluid (supercritical or subcritical phases) | 230.37 ± 1.6
669.94 K, 7000 kPa, Fluid (supercritical or subcritical phases) | 211.48 ± 1.5
669.98 K, 6000 kPa, Fluid (supercritical or subcritical phases) | 220.01 ± 1.6
670.97 K, 4000 kPa, Fluid (supercritical or subcritical phases) | 240.91 ± 1.6
680.25 K, 5000 kPa, Fluid (supercritical or subcritical phases) | 233.53 ± 1.6
680.27 K, 4000 kPa, Fluid (supercritical or subcritical phases) | 242.88 ± 1.6
680.27 K, 7000 kPa, Fluid (supercritical or subcritical phases) | 215.49 ± 1.6
680.32 K, 6000 kPa, Fluid (supercritical or subcritical phases) | 223.86 ± 1.6
